Assay results as given in patent US20240254118A1, “PRMT5 INHIBITORS AND USES THEREOF” (Gilead Sciences, Inc., priority 2022, published 2024).

tested on: HCT116 MTAP-deleted cells; test: Cell viability assay (CellTiter-Glo, 7 days), HCT116 MTAP-deleted; conditions: Homo sapiens, HCT-116, 168 h

`CC(=O)N(C)N(Cc1ccc(-c2cnn(C(F)(F)F)c2)cc1C#N)C(=O)c1ccc2nc(N)c3cnn(C)c3c2c1` [Example 251, N′-acetyl-4-amino-N-(2-cyano-4-(1-(trifluoromethyl)-1H-pyrazol-4-yl)benzyl)-N′,1-dimethyl-1H-pyrazolo[4,3-c]quinoline-8-carbohydrazide] and `CC(=O)N(C)N(Cc1ccc(-c2cnn(C(F)(F)F)c2)nc1F)C(=O)c1ccc2nc(N)c3cnn(C)c3c2c1` [Example 347, N′-acetyl-4-amino-N-((2-fluoro-6-(1-(trifluoromethyl)-1H-pyrazol-4-yl)pyridin-3-yl)methyl)-N′,1-dimethyl-1H-pyrazolo[4,3-c]quinoline-8-carbohydrazide] cannot be ordered by CC50: under 100 nM for the first, under 100 nM for the second.

`CC(=O)N(C)N(Cc1ccn(-c2cccc(F)c2)n1)C(=O)c1ccc2nc(N)c3cnn(C)c3c2c1` [Example 435, N′-acetyl-4-amino-N-((1-(3-fluorophenyl)-1H-pyrazol-3-yl)methyl)-N′,1-dimethyl-1H-pyrazolo[4,3-c]quinoline-8-carbohydrazide] and `CC(=O)N(C)N(Cc1ccn(-c2ccccc2F)n1)C(=O)c1ccc2nc(N)c3cnn(C)c3c2c1` [Example 436, N′-acetyl-4-amino-N-((1-(2-fluorophenyl)-1H-pyrazol-3-yl)methyl)-N′,1-dimethyl-1H-pyrazolo[4,3-c]quinoline-8-carbohydrazide] cannot be ordered by CC50: under 100 nM for the first, under 100 nM for the second.

`CC(=O)N(C)N(Cc1ccc(-c2cnn(C3(C)CC3)c2)cc1F)C(=O)c1ccc2nc(N)c3cnn(C)c3c2c1` [Example 247, N′-acetyl-4-amino-N-(2-fluoro-4-(1-(1-methylcyclopropyl)-1H-pyrazol-4-yl)benzyl)-N′,1-dimethyl-1H-pyrazolo[4,3-c]quinoline-8-carbohydrazide] and `CC(=O)N(C)N(Cc1ccc(-c2cnoc2)cc1F)C(=O)c1ccc2nc(N)c3cnn(C)c3c2c1` [Example 227, N′-acetyl-4-amino-N-(2-fluoro-4-(isoxazol-4-yl)benzyl)-N′,1-dimethyl-1H-pyrazolo[4,3-c]quinoline-8-carbohydrazide] cannot be ordered by CC50: under 100 nM for the first, under 100 nM for the second.

`CN(C(=O)C1CC1)N(Cc1ccc(C(F)F)cn1)C(=O)c1ccc2nc(N)c3cnn(C)c3c2c1` [Example 370, 4-amino-N′-(cyclopropanecarbonyl)-N-((5-(difluoromethyl)pyridin-2-yl)methyl)-N′,1-dimethyl-1H-pyrazolo[4,3-c]quinoline-8-carbohydrazide] and `CN(C(=O)C1CC1)N(Cc1ccc(C2CC2)cn1)C(=O)c1ccc2nc(N)c3cnn(C)c3c2c1` [Example 357, 4-amino-N′-(cyclopropanecarbonyl)-N-((5-cyclopropylpyridin-2-yl)methyl)-N′,1-dimethyl-1H-pyrazolo[4,3-c]quinoline-8-carbohydrazide] cannot be ordered by CC50: under 100 nM for the first, under 100 nM for the second.

`CC(=O)N(C)N(Cc1ccn(-c2ccc(C(F)(F)F)cc2)n1)C(=O)c1ccc2nc(N)c3cnn(C)c3c2c1` [Example 417, N′-acetyl-4-amino-N′,1-dimethyl-N-((1-(4-(trifluoromethyl)phenyl)-1H-pyrazol-3-yl)methyl)-1H-pyrazolo[4,3-c]quinoline-8-carbohydrazide] and `CC(=O)N(C)N(Cc1ccn(-c2ccc(F)cc2)n1)C(=O)c1cc2c(cc1F)nc(N)c1cnn(C)c12` [Example 425, N′-acetyl-4-amino-7-fluoro-N-((1-(4-fluorophenyl)-1H-pyrazol-3-yl)methyl)-N′,1-dimethyl-1H-pyrazolo[4,3-c]quinoline-8-carbohydrazide] cannot be ordered by CC50: under 100 nM for the first, under 100 nM for the second.

First: CC(=O)N(C)N(Cc1cnc(-c2ccccc2)n1C)C(=O)c1ccc2nc(N)c3cnn(C)c3c2c1 [Example 433, N′-acetyl-4-amino-N′,1-dimethyl-N-((1-methyl-2-phenyl-1H-imidazol-5-yl)methyl)-1H-pyrazolo[4,3-c]quinoline-8-carbohydrazide]
Second: CC(=O)N(C)N(Cc1ccc2c(c1)c1ccccc1n2C)C(=O)c1ccc2nc(N)c3cnn(C)c3c2c1 [Example 412, N′-acetyl-4-amino-N′,1-dimethyl-N-((9-methyl-9H-carbazol-3-yl)methyl)-1H-pyrazolo[4,3-c]quinoline-8-carbohydrazide]
The CC50 of the first is lower: under 100 nM for the first, 100 to 1000 nM for the second.

`Cc1nc(C(F)(F)F)ccc1CN(C(=O)c1ccc2nc(N)c3cnn(C)c3c2c1)N(C)C(=O)C1CC1` [Example 409, 4-amino-N′-(cyclopropanecarbonyl)-N′,1-dimethyl-N-((2-methyl-6-(trifluoromethyl)pyridin-3-yl)methyl)-1H-pyrazolo[4,3-c]quinoline-8-carbohydrazide] and `COCc1cc(C(F)(F)F)ccc1CN(C(=O)c1ccc2nc(N)c3cnn(C)c3c2c1)N(C)C(=O)C1CC1` [Example 316, 4-amino-N′-(cyclopropanecarbonyl)-N-(2-(methoxymethyl)-4-(trifluoromethyl)benzyl)-N′,1-dimethyl-1H-pyrazolo[4,3-c]quinoline-8-carbohydrazide] cannot be ordered by CC50: under 100 nM for the first, under 100 nM for the second.

`CC(=O)N(C)N(Cc1ccc(-c2ccc(C(F)(F)F)cn2)cc1F)C(=O)c1ccc2nc(N)c3cnn(C)c3c2c1` [Example 224, N′-acetyl-4-amino-N-(2-fluoro-4-(5-(trifluoromethyl)pyridin-2-yl)benzyl)-N′,1-dimethyl-1H-pyrazolo[4,3-c]quinoline-8-carbohydrazide] and `CC(=O)N(C)N(Cc1ccc(-c2cnc(C(F)(F)F)s2)cc1F)C(=O)c1ccc2nc(N)c3cnn(C)c3c2c1` [Example 217, N′-acetyl-4-amino-N-(2-fluoro-4-(2-(trifluoromethyl)thiazol-5-yl)benzyl)-N′,1-dimethyl-1H-pyrazolo[4,3-c]quinoline-8-carbohydrazide] cannot be ordered by CC50: under 100 nM for the first, under 100 nM for the second.

`CC(=O)N(C)N(Cc1ccc(-c2ccc(C(F)(F)F)s2)cc1F)C(=O)c1ccc2nc(N)c3cnn(C)c3c2c1` [Example 237, N′-acetyl-4-amino-N-(2-fluoro-4-(5-(trifluoromethyl)thiophen-2-yl)benzyl)-N′,1-dimethyl-1H-pyrazolo[4,3-c]quinoline-8-carbohydrazide] and `[2H]C([2H])([2H])N(C(C)=O)N(Cc1ccc(C(F)(F)F)cc1F)C(=O)c1ccc2nc(N)c3cnn(C)c3c2c1` [Example 269, N′-acetyl-4-amino-N-(2-fluoro-4-(trifluoromethyl)benzyl)-1-methyl-N′-(methyl-d3)-1H-pyrazolo[4,3-c]quinoline-8-carbohydrazide] cannot be ordered by CC50: under 100 nM for the first, under 100 nM for the second.

Compared with `CN(C(=O)C1CC1)N(Cc1ccc(-c2cnn(C)c2)cn1)C(=O)c1ccc2nc(N)c3cnn(C)c3c2c1` [Example 356, 4-amino-N′-(cyclopropanecarbonyl)-N′,1-dimethyl-N-((5-(1-methyl-1H-pyrazol-4-yl)pyridin-2-yl)methyl)-1H-pyrazolo[4,3-c]quinoline-8-carbohydrazide], `CN(C(=O)C1CC1)N(Cc1cc2cc(Cl)ccn2n1)C(=O)c1ccc2nc(N)c3cnn(C)c3c2c1` [Example 401] is lower in CC50: 100 to 1000 nM for the first, under 100 nM for the second.

First: CN(C(=O)C1CC1)N(Cc1ccc(C(F)(F)F)cn1)C(=O)c1cc2c(cn1)nc(N)c1cnn(C)c12 [Example 422, 4-amino-N′-(cyclopropanecarbonyl)-N′,1-dimethyl-N-((5-(trifluoromethyl)pyridin-2-yl)methyl)-1H-pyrazolo[4,3-c][1,7]naphthyridine-8-carbohydrazide]
Second: CN(C(=O)C1CC1(F)F)N(Cc1ccc(C(F)(F)F)cn1)C(=O)c1ccc2nc(N)c3cnn(C)c3c2c1 (centres unmarked) [Example 358, 4-amino-N′-(2,2-difluorocyclopropane-1-carbonyl)-N′,1-dimethyl-N-((5-(trifluoromethyl)pyridin-2-yl)methyl)-1H-pyrazolo[4,3-c]quinoline-8-carbohydrazide]
The CC50 of the first is higher: 100 to 1000 nM for the first, under 100 nM for the second.

`CC(=O)N(C)N(Cc1nc2cc(F)c(F)cc2n1C)C(=O)c1ccc2nc(N)c3cnn(C)c3c2c1` [Example 424, N′-acetyl-4-amino-N-((5,6-difluoro-1-methyl-1H-benzo[d]imidazol-2-yl)methyl)-N′,1-dimethyl-1H-pyrazolo[4,3-c]quinoline-8-carbohydrazide] and `CC(=O)N(C)N(Cc1c(F)cc(Cl)cc1F)C(=O)c1ccc2nc(N)c3cnn(C)c3c2c1` [Example 367, N′-acetyl-4-amino-N-(4-chloro-2,6-difluorobenzyl)-N′,1-dimethyl-1H-pyrazolo[4,3-c]quinoline-8-carbohydrazide] cannot be ordered by CC50: under 100 nM for the first, under 100 nM for the second.

`CC(=O)N(C)N(Cc1ccc(-c2cnn(C(F)F)c2)nc1F)C(=O)c1ccc2nc(N)c3cnn(C)c3c2c1` [Example 348, N′-acetyl-4-amino-N-((6-(1-(difluoromethyl)-1H-pyrazol-4-yl)-2-fluoropyridin-3-yl)methyl)-N′,1-dimethyl-1H-pyrazolo[4,3-c]quinoline-8-carbohydrazide] and `CN(C(=O)C1CC1)N(Cc1ccc(-c2ccn(C(F)F)n2)cc1F)C(=O)c1ccc2nc(N)c3cnn(C)c3c2c1` [Example 312, 4-amino-N′-(cyclopropanecarbonyl)-N-(4-(1-(difluoromethyl)-1H-pyrazol-3-yl)-2-fluorobenzyl)-N′,1-dimethyl-1H-pyrazolo[4,3-c]quinoline-8-carbohydrazide] cannot be ordered by CC50: under 100 nM for the first, under 100 nM for the second.

`CC(=O)N(C)N(Cc1cccc2ccoc12)C(=O)c1ccc2nc(N)c3cnn(C)c3c2c1` [Example 273, N′-acetyl-4-amino-N-(benzofuran-7-ylmethyl)-N′,1-dimethyl-1H-pyrazolo[4,3-c]quinoline-8-carbohydrazide] and `CC(=O)N(C)N(Cc1c(F)cc(-c2cnn(C)c2)cc1F)C(=O)c1ccc2nc(N)c3cnn(C)c3c2c1` [Example 380, N′-acetyl-4-amino-N-[[2,6-difluoro-4-(1-methylpyrazol-4-yl)phenyl]methyl]-N′,1-dimethyl-pyrazolo[4,3-c]quinoline-8-carbohydrazide] cannot be ordered by CC50: under 100 nM for the first, under 100 nM for the second.

`Cn1ncc2c(N)nc3ccc(C(=O)N(Cc4ccc(C(F)(F)F)cn4)N4CCOC(C(F)(F)F)C4)cc3c21` (centres unmarked) [Example 428, 4-amino-1-methyl-N-(2-(trifluoromethyl)morpholino)-N-((5-(trifluoromethyl)pyridin-2-yl)methyl)-1H-pyrazolo[4,3-c]quinoline-8-carboxamide] was tested, and the CC50 was 100 to 1000 nM.
